According to PMC10108266, “Pharmacokinetic characteristics of golidocitinib, a highly selective JAK1 inhibitor, in healthy adult participants” (Frontiers in Immunology, 2023):

What was measured:
[1] = Safety (TEAEs), JACKPOT2 food effect cohort; assay type: in vivo, human
From the text: (§1) Safety assessments included monitoring of adverse events/serious adverse events, clinical safety laboratory tests (clinical chemistry, hematology, coagulation, and urinalysis tests), 12-lead ECG, vital signs (blood pressure, pulse rate, and respiratory rate), and pulmonary function. All adverse events were coded using the Medical Dictionary for Regulatory Activities (MedDRA), version 22.0. The CTCAE 5.0 was used to define the intensity of AEs.

[2] = Safety (TEAEs), JACKPOT2 MAD cohorts; assay type: in vivo, human; details: n = 6
From the text: as §1

[3] = Clearance pathways (available data); assay type: in vivo, human
[4] = tested on: CYP3A4/5 and flavin-containing monooxygenase enzyme (FMO); experiment: Enzymatic systems implicated in metabolism; assay type: in vitro ADME

Question: Which “Alanine Aminotransferase Increased” value ([1]; 50 mg (Fasted), n = 12) does the source give for `COc1nn(C)cc1Nc1nccc(-c2c[nH]c3c(NC(=O)[C@@H](C)N4CCN(C)CC4)cccc23)n1` [golidocitinib, (2R)-N-[3-[2-[(3-Methoxy-1-methyl-pyrazol-4-yl)amino]pyrimidin-4-yl]-1H-indol-7-yl]-2-(4-methylpiperazin-1-yl)propenamide] here?
Answer: 1 (8.3%) n (%)

Question: And the Anemia ([1]; 50 mg (Fasted), n = 12)?
Answer: 0 n (%)

Question: What about the “Aspartate Aminotransferase Increased” value ([1]; 50 mg (Fasted), n = 12) of the same molecule?
Answer: 0 n (%)

Question: And the “Blood Lactate Dehydrogenase Increased” value ([1]; 50 mg (Fasted), n = 12)?
Answer: 0 n (%)

Question: What about the “Blood and Lymphatic System Disorders” value ([1]; 50 mg (Fasted), n = 12) of the same molecule?
Answer: 0 n (%)

Question: And the “Cardiac Disorders” value ([1]; 50 mg (Fasted), n = 12)?
Answer: 1 (8.3%) n (%)

Question: And the Cough ([1]; 50 mg (Fasted), n = 12)?
Answer: 0 n (%)

Question: What about the Extrasystoles ([1]; 50 mg (Fasted), n = 12) of the same molecule?
Answer: 1 (8.3%) n (%)

Question: What about the Headache ([1]; 50 mg (Fasted), n = 12) of the same molecule?
Answer: 0 n (%)

Question: What about the Investigations ([1]; 50 mg (Fasted), n = 12) of the same molecule?
Answer: 2 (16.7%) n (%)

Question: And the “Lipase Increased” value ([1]; 50 mg (Fasted), n = 12)?
Answer: 1 (8.3%) n (%)

Question: What about the “Nervous System Disorders” value ([1]; 50 mg (Fasted), n = 12) of the same molecule?
Answer: 0 n (%)

Question: What about the “Respiratory, Thoracic and Mediastinal Disorders” value ([1]; 50 mg (Fasted), n = 12) of the same molecule?
Answer: 0 n (%)

Question: And the Rhinorrhea ([1]; 50 mg (Fasted), n = 12)?
Answer: 0 n (%)

Question: What about the “Subjects with at least one TEAE” value ([1]; 50 mg (Fasted), n = 12) of the same molecule?
Answer: 3 (25.0%) n (%)

Question: And the “Alanine Aminotransferase Increased” value ([1]; 50 mg (Fed), n = 11)?
Answer: 3 (27.3%) n (%)

Question: And the Anemia ([1]; 50 mg (Fed), n = 11)?
Answer: 1 (9.1%) n (%)

Question: And the “Aspartate Aminotransferase Increased” value ([1]; 50 mg (Fed), n = 11)?
Answer: 2 (18.2%) n (%)

Question: What about the “Blood Lactate Dehydrogenase Increased” value ([1]; 50 mg (Fed), n = 11) of the same molecule?
Answer: 1 (9.1%) n (%)

Question: What about the “Blood and Lymphatic System Disorders” value ([1]; 50 mg (Fed), n = 11) of the same molecule?
Answer: 1 (9.1%) n (%)

Question: And the “Cardiac Disorders” value ([1]; 50 mg (Fed), n = 11)?
Answer: 0 n (%)

Question: What about the Cough ([1]; 50 mg (Fed), n = 11) of the same molecule?
Answer: 1 (9.1%) n (%)

Question: And the Extrasystoles ([1]; 50 mg (Fed), n = 11)?
Answer: 0 n (%)

Question: And the Headache ([1]; 50 mg (Fed), n = 11)?
Answer: 1 (9.1%) n (%)

Question: What about the Investigations ([1]; 50 mg (Fed), n = 11) of the same molecule?
Answer: 4 (36.4%) n (%)

Question: What about the “Lipase Increased” value ([1]; 50 mg (Fed), n = 11) of the same molecule?
Answer: 1 (9.1%) n (%)

Question: And the “Nervous System Disorders” value ([1]; 50 mg (Fed), n = 11)?
Answer: 1 (9.1%) n (%)

Question: What about the “Respiratory, Thoracic and Mediastinal Disorders” value ([1]; 50 mg (Fed), n = 11) of the same molecule?
Answer: 2 (18.2%) n (%)

Question: What about the Rhinorrhea ([1]; 50 mg (Fed), n = 11) of the same molecule?
Answer: 2 (18.2%) n (%)

Question: What about the “Subjects with at least one TEAE” value ([1]; 50 mg (Fed), n = 11) of the same molecule?
Answer: 7 (63.6%) n (%)

Question: And the “discontinuation due to AE” value ([1]; 50 mg, fasted state, AE mild, resolved within 2 hours without treatment)?
Answer: one subject was discontinued due to an AE of trigeminy

Question: And the Abdominal pain upper ([2]; 25 mg once daily 14 days)?
Answer: 0 n (%)

Question: What about the “Blood and Lymphatic Disorders” value ([2]; 25 mg once daily 14 days) of the same molecule?
Answer: 1 (16.7%) n (%)

Question: What about the Constipation ([2]; 25 mg once daily 14 days) of the same molecule?
Answer: 1 (16.7%) n (%)

Question: And the Dry throat ([2]; 25 mg once daily 14 days)?
Answer: 0 n (%)

Question: What about the “Gastrointestinal disorders” value ([2]; 25 mg once daily 14 days) of the same molecule?
Answer: 1 (16.7%) n (%)

Question: What about the Headache ([2]; 25 mg once daily 14 days) of the same molecule?
Answer: 0 n (%)

Question: What about the “Injury, poisoning and procedural complications” value ([2]; 25 mg once daily 14 days) of the same molecule?
Answer: 0 n (%)

Question: What about the Leukopenia ([2]; 25 mg once daily 14 days) of the same molecule?
Answer: 0 n (%)

Question: And the Nausea ([2]; 25 mg once daily 14 days)?
Answer: 0 n (%)

Question: And the “Nervous System Disorders” value ([2]; 25 mg once daily 14 days)?
Answer: 0 n (%)

Question: And the Neutropenia ([2]; 25 mg once daily 14 days)?
Answer: 1 (16.7%) n (%)

Question: What about the “Respiratory, Thoracic and Mediastinal Disorders” value ([2]; 25 mg once daily 14 days) of the same molecule?
Answer: 0 n (%)

Question: And the Reticulocytopenia ([2]; 25 mg once daily 14 days)?
Answer: 0 n (%)

Question: And the “Skin Laceration” value ([2]; 25 mg once daily 14 days)?
Answer: 0 n (%)

Question: What about the “Subjects with at least one TEAE” value ([2]; 25 mg once daily 14 days) of the same molecule?
Answer: 2 (33.3%) n (%)

Question: What about the Abdominal pain upper ([2]; 50 mg once daily 14 days) of the same molecule?
Answer: 1 (16.7%) n (%)

Question: What about the “Blood and Lymphatic Disorders” value ([2]; 50 mg once daily 14 days) of the same molecule?
Answer: 0 n (%)

Question: And the Constipation ([2]; 50 mg once daily 14 days)?
Answer: 1 (16.7%) n (%)

Question: What about the Dry throat ([2]; 50 mg once daily 14 days) of the same molecule?
Answer: 0 n (%)

Question: And the “Gastrointestinal disorders” value ([2]; 50 mg once daily 14 days)?
Answer: 1 (16.7%) n (%)

Question: What about the Headache ([2]; 50 mg once daily 14 days) of the same molecule?
Answer: 1 (16.7%) n (%)

Question: What about the “Injury, poisoning and procedural complications” value ([2]; 50 mg once daily 14 days) of the same molecule?
Answer: 0 n (%)

Question: And the Leukopenia ([2]; 50 mg once daily 14 days)?
Answer: 0 n (%)

Question: And the Nausea ([2]; 50 mg once daily 14 days)?
Answer: 1 (16.7%) n (%)

Question: What about the “Nervous System Disorders” value ([2]; 50 mg once daily 14 days) of the same molecule?
Answer: 1 (16.7%) n (%)

Question: What about the Neutropenia ([2]; 50 mg once daily 14 days) of the same molecule?
Answer: 0 n (%)

Question: And the “Respiratory, Thoracic and Mediastinal Disorders” value ([2]; 50 mg once daily 14 days)?
Answer: 0 n (%)

Question: What about the Reticulocytopenia ([2]; 50 mg once daily 14 days) of the same molecule?
Answer: 0 n (%)

Question: What about the “Skin Laceration” value ([2]; 50 mg once daily 14 days) of the same molecule?
Answer: 0 n (%)

Question: And the “Subjects with at least one TEAE” value ([2]; 50 mg once daily 14 days)?
Answer: 1 (16.7%) n (%)

Question: What about the Abdominal pain upper ([2]; 100 mg once daily 14 days) of the same molecule?
Answer: 0 n (%)

Question: And the “Blood and Lymphatic Disorders” value ([2]; 100 mg once daily 14 days)?
Answer: 3 (50.0%) n (%)

Question: And the Constipation ([2]; 100 mg once daily 14 days)?
Answer: 0 n (%)

Question: And the Dry throat ([2]; 100 mg once daily 14 days)?
Answer: 0 n (%)

Question: What about the “Gastrointestinal disorders” value ([2]; 100 mg once daily 14 days) of the same molecule?
Answer: 0 n (%)

Question: And the Headache ([2]; 100 mg once daily 14 days)?
Answer: 1 (16.7%) n (%)

Question: What about the “Injury, poisoning and procedural complications” value ([2]; 100 mg once daily 14 days) of the same molecule?
Answer: 0 n (%)

Question: What about the Leukopenia ([2]; 100 mg once daily 14 days) of the same molecule?
Answer: 2 (33.3%) n (%)

Question: And the Nausea ([2]; 100 mg once daily 14 days)?
Answer: 0 n (%)

Question: And the “Nervous System Disorders” value ([2]; 100 mg once daily 14 days)?
Answer: 1 (16.7%) n (%)

Question: And the Neutropenia ([2]; 100 mg once daily 14 days)?
Answer: 3 (50.0%) n (%)

Question: What about the “Respiratory, Thoracic and Mediastinal Disorders” value ([2]; 100 mg once daily 14 days) of the same molecule?
Answer: 0 n (%)

Question: What about the Reticulocytopenia ([2]; 100 mg once daily 14 days) of the same molecule?
Answer: 1 (16.7%) n (%)

Question: And the “Skin Laceration” value ([2]; 100 mg once daily 14 days)?
Answer: 0 n (%)

Question: And the “Subjects with at least one TEAE” value ([2]; 100 mg once daily 14 days)?
Answer: 3 (50.0%) n (%)

Question: What about the “hepatic clearance, share of clearance” value [3] of the same molecule?
Answer: 70-80%

Question: And the “renal excretion, share of clearance” value [3]?
Answer: 20-30%

Question: And the “enzymatic systems implicated in the metabolism” value [4]?
Answer: CYP3A4/5 and flavin-containing monooxygenase enzyme (FMO)
